# Results published in US20240199692A1 (priority 2019, published 2024).
# *1 amine or outer side, *2 acyl side, *3 side chain or, on linkers, in order; H or OH if unused. Where a SMILES comes first, the peptide text is derived from it. [ ]: non-standard residue; d: D form. The star is where a group is joined. Benzoyl(4-O-C6H4-4-CONHMe) = CNC(=O)c1ccc(Oc2ccc(C(=O)*)cc2)cc1; Benzoyl(4-OPh(4-CONH2)) = NC(=O)c1ccc(Oc2ccc(C(=O)*)cc2)cc1; X14 = CN(C)C(=O)c1ccc(C(=O)Nc2ccc(S(=O)(=O)*)cc2)cc1; X1 = O=C(Nc1ccc(S(=O)(=O)*)cc1)c1ccc(OC(F)(F)F)cc1; X11 = O=C(O)CCCCNC(=O)c1ccc(Oc2ccc(C(=O)*)cc2)cc1; X19 = O=C(O)CNC(=O)c1ccc(Oc2ccc(C(=O)*)cc2)cc1; X10 = NC(=O)c1ccc(-c2ccc(S(=O)(=O)*)cc2)cc1; X15 = CC(=O)c1ccc(-c2ccc(S(=O)(=O)*)cc2)cc1; Benzoyl(4-OPh) = O=C(c1ccc(Oc2ccccc2)cc1)*; d(γGlu) = O=C(O)[C@@H](CCC(=O)[*:2])N[*:1]; d(βAsp) = O=C(O)[C@@H](CC(=O)[*:2])N[*:1]; X7 = O=S(=O)(c1ccc(-c2ccc(OCCO)cc2)cc1)*; X13 = Cc1ccc(C#Cc2ccc(S(=O)(=O)*)s2)cc1; NMeI = CC[C@H](C)[C@H](NC)C(=O)O; NMeE = CN[C@@H](CCC(=O)O)C(=O)O; NMeM = CN[C@@H](CCSC)C(=O)O; NMeV = CN[C@H](C(=O)O)C(C)C; β3hP = O=C(O)C[C@@H]1CCCN1; NMeA = CN[C@@H](C)C(=O)O; Orn = NCCC[C@H](N)C(=O)O; Aze = O=C(O)[C@@H]1CCN1; Dab = NCC[C@H](N)C(=O)O; X18 = NC(=O)[C@H](N)CN*; Dap = NC[C@H](N)C(=O)O; Ava = NCCCCC(=O)O; GABA = NCCCC(=O)O; βAla = NCCC(=O)O
# Biological target: T1, MMP2 (Homo sapiens, UniProt P08253)
# T1 sequence (P08253 110-660): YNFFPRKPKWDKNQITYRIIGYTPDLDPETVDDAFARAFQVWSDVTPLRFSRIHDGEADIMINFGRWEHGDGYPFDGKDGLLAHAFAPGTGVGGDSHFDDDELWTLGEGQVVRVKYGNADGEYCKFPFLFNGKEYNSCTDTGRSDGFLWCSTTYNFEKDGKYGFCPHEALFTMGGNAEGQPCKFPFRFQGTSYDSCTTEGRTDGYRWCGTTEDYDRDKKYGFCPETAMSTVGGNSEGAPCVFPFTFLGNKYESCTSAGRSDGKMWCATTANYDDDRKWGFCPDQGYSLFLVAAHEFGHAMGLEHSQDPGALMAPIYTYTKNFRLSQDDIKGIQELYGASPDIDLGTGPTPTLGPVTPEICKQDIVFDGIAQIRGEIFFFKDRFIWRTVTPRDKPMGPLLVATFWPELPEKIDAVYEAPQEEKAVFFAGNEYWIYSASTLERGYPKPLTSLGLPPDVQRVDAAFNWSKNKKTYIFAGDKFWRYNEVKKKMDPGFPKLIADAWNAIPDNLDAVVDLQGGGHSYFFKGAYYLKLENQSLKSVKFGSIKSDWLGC
# Assay: Inhibitory effects on human MMP2 (Method 1), enzyme assay with MOCAc-Pro-Leu-Gly-Leu-A2pr(Dnp)-Ala-Arg-NH2 substrate, 96-well
# Assay type: biochemical
# Conditions: Test Example No. 1-1 (Method 1, 96-well microplate); read-out: Human MMP2, IC50
# Method: In a reaction solution [50 mmol/L Tris-HCl (pH 7.5), 150 mmol/L NaCl, 10 mmol/L CaCl2, 0.05% Brij L23], 100 μg/mL human recombinant MMP2 enzyme and 1 mmol/L 4-Aminophenylmercuric acetate were mixed together, and reacted at 37° C. for 60 minutes. The human MMP2 activated through the reaction was poured into a 96-well microplate to reach a final concentration of 0.7 or 7 ng/mL.
row,SMILES,IC50
1,Cc1ccc(C#Cc2ccc(S(=O)(=O)NCCC(=O)N[C@@H](CC(N)=O)C(=O)N[C@@H](CC(=O)O)C(=O)N[C@@H](C)C(=O)N[C@@H](CC(C)C)C(=O)N(C)[C@H](C(=O)N3CCC[C@H]3C(N)=O)C(C)C)s2)cc1 [Compound 589] ({X13-βAla}-NDAL[NMeV]P-NH2; N-terminus assumed),0.12 nM
2,"CNC(=O)c1ccc(Oc2ccc(C(=O)NCCCC(=O)N[C@@H](CC(N)=O)C(=O)N[C@@H](CC(=O)O)C(=O)N[C@@H](C)C(=O)N[C@@H](CC(C)C)C(=O)N[C@@H](CCSC)C(=O)N3CCC[C@H]3C(N)=O)cc2)cc1 [Compound 177, N^2-(4-{4-[4-(methylcarbamoyl)phenoxy]benzamido}butanoyl)-L-asparaginyl-L-α-aspartyl-L-alanyl-L-leucyl-L-methionyl-L-prolinamide] ({Benzoyl(4-O-C6H4-4-CONHMe)-GABA}-NDALMP-NH2)",0.21 nM
3,CC[C@H](C)[C@@H](C(=O)N1CCC[C@H]1CC(N)=O)N(C)C(=O)[C@H](CC(C)C)NC(=O)[C@H](CN)NC(=O)[C@H](CC(=O)O)NC(=O)[C@@H]1CCN1C(=O)CCCNC(=O)c1ccc(Oc2ccccc2)cc1 [Compound 132] ({Benzoyl(4-OPh)-GABA}-[Aze]D[Dap]L[NMeI][β3hP]-NH2; N-terminus assumed),0.43 nM
4,CC[C@H](C)[C@@H](C(=O)N1CCC[C@H]1C(N)=O)N(C)C(=O)[C@H](CC(C)C)NC(=O)[C@H](CCN)NC(=O)[C@H](CC(=O)O)NC(=O)[C@H](C(C)C)N(C)C(=O)CCCNC(=O)c1ccc(Oc2ccccc2)cc1 [Compound 135] ({Benzoyl(4-OPh)-GABA}-[NMeV]D[Dab]L[NMeI]P-NH2; N-terminus assumed),9.3 nM
5,CC[C@H](C)[C@@H](C(=O)N1CCC[C@H]1CC(N)=O)N(C)C(=O)[C@H](CC(C)C)NC(=O)[C@H](C)NC(=O)C[C@@H](NS(=O)(=O)c1ccc(-c2ccc(C(N)=O)cc2)cc1)C(=O)O [Compound 635] ({X10-d(βAsp)}-AL[NMeI][β3hP]-NH2; N-terminus assumed),0.83 nM
6,CC(C)C[C@H](NC(=O)[C@H](CCN)NC(=O)[C@H](CC(=O)O)NC(=O)[C@H](CC(N)=O)NC(=O)CCCNC(=O)c1ccc(Oc2ccccc2)cc1)C(=O)N(C)[C@@H](CCC(=O)O)C(=O)N1CCC[C@H]1CC(N)=O [Compound 108] ({Benzoyl(4-OPh)-GABA}-ND[Dab]L[NMeE][β3hP]-NH2),0.19 nM
7,CC(C)C[C@H](NC(=O)[C@H](CN)NC(=O)C[C@@H](NS(=O)(=O)c1ccc(NC(=O)c2ccc(C(=O)N(C)C)cc2)cc1)C(=O)O)C(=O)N(C)[C@@H](CCC(=O)O)C(=O)N1CCC[C@H]1CC(N)=O [Compound 679] ({X14-d(βAsp)}-[Dap]L[NMeE][β3hP]-NH2; N-terminus assumed),1.5 nM
8,CC[C@H](C)[C@@H](C(=O)N1CCC[C@H]1C(N)=O)N(C)C(=O)[C@H](CC(C)C)NC(=O)[C@H](C)NC(=O)[C@H](CC(=O)O)NC(=O)[C@H](C)N(C)C(=O)CCCNC(=O)c1ccc(Oc2ccccc2)cc1 [Compound 92] ({Benzoyl(4-OPh)-GABA}-[NMeA]DAL[NMeI]P-NH2; N-terminus assumed),0.31 nM
9,CC[C@H](C)[C@@H](C(=O)N1CCC[C@H]1C(N)=O)N(C)C(=O)[C@H](CC(C)C)NC(=O)[C@H](C)NC(=O)[C@H](CC(=O)O)NC(=O)[C@@H](CC(N)=O)NC(=O)CCCNC(=O)c1ccc(Oc2ccccc2)cc1 [Compound 114] ({Benzoyl(4-OPh)-GABA}-[dN]DAL[NMeI]P-NH2; N-terminus assumed),0.072 nM
10,CSCC[C@H](NC(=O)[C@H](CC(C)C)NC(=O)[C@H](C)NC(=O)[C@H](CC(=O)O)NC(=O)[C@H](CC(N)=O)NC(=O)CCCCNC(=O)c1ccc(Oc2ccc(C(=O)NCC(=O)O)cc2)cc1)C(=O)N1CCC[C@H]1C(N)=O [Compound 178] ({X19-Ava}-NDALMP-NH2; N-terminus assumed),3.6 nM
11,"CC[C@H](C)[C@@H](C(=O)N1CCC[C@H]1CC(N)=O)N(C)C(=O)[C@H](CC(C)C)NC(=O)[C@H](C)NC(=O)C[C@@H](NS(=O)(=O)c1ccc(-c2ccc(C(C)=O)cc2)cc1)C(=O)O [Compound 634, N^2-(4′-acetyl[1,1′-biphenyl]-4-sulfonyl)-N-[(2S)-1-({(2S)-1-[{(2S,3S)-1-[(2S)-2-(2-amino-2-oxoethyl)pyrrolidin-1-yl]-3-methyl-1-oxopentan-2-yl}(methyl)amino]-4-methyl-1-oxopentan-2-yl}amino)-1-oxopropan-2-yl]-D-asparagine] ({X15-d(βAsp)}-AL[NMeI][β3hP]-NH2)",0.13 nM
12,CC(C)C[C@H](NC(=O)[C@H](CCN)NC(=O)[C@H](CC(=O)O)NC(=O)[C@H](CCC(N)=O)NC(=O)[C@@H](N)CCCNC(=O)c1ccc(Oc2ccc(C(N)=O)cc2)cc1)C(=O)N(C)[C@H](C(=O)NC[C@@H](N)C(N)=O)C(C)C [Compound 536] (H-[Orn](Benzoyl(4-OPh(4-CONH2)))QD[Dab]L[NMeV]-X18),0.35 nM
13,CC[C@H](C)[C@@H](C(=O)N1CCC[C@H]1CC(N)=O)N(C)C(=O)[C@H](CC(C)C)NC(=O)[C@H](CCN)NC(=O)[C@H](CC(=O)O)NC(=O)[C@@H]1CCN1C(=O)CCCNC(=O)c1ccc(Oc2ccccc2)cc1 [Compound 133] ({Benzoyl(4-OPh)-GABA}-[Aze]D[Dab]L[NMeI][β3hP]-NH2; N-terminus assumed),0.88 nM
14,CC[C@H](C)[C@@H](C(=O)N1CCC[C@H]1CC(N)=O)N(C)C(=O)[C@H](CC(C)C)NC(=O)[C@H](CCN)NC(=O)[C@H](CC(=O)O)NC(=O)[C@@H](NC(=O)CCCNC(=O)c1ccc(Oc2ccccc2)cc1)C(C)C [Compound 146] ({Benzoyl(4-OPh)-GABA}-VD[Dab]L[NMeI][β3hP]-NH2; N-terminus assumed),1.7 nM
15,"CSCC[C@@H](C(=O)N1CCC[C@H]1C(N)=O)N(C)C(=O)[C@H](CC(C)C)NC(=O)[C@H](C)NC(=O)[C@H](CC(=O)O)NC(=O)[C@H](CC(N)=O)NC(=O)CCNS(=O)(=O)c1ccc(C#Cc2ccc(C)cc2)s1 [Compound 587, N-{5-[(4-methylphenyl)ethynyl]thiophene-2-sulfonyl}-β-alanyl-L-asparaginyl-L-α-aspartyl-L-alanyl-L-leucyl-N-methyl-L-methionyl-L-prolinamide] ({X13-βAla}-NDAL[NMeM]P-NH2)",0.19 nM
16,CC(C)C[C@H](NC(=O)[C@H](CCN)NC(=O)CC[C@@H](NS(=O)(=O)c1ccc(NC(=O)c2ccc(OC(F)(F)F)cc2)cc1)C(=O)O)C(=O)N(C)[C@@H](CCC(=O)O)C(=O)N1CCC[C@H]1CC(N)=O [Compound 704] ({X1-d(γGlu)}-[Dab]L[NMeE][β3hP]-NH2; N-terminus assumed),0.42 nM
17,CC[C@H](C)[C@@H](C(=O)N1CCC[C@H]1CC(N)=O)N(C)C(=O)[C@H](CC(C)C)NC(=O)[C@H](CCN)NC(=O)[C@H](CC(=O)O)NC(=O)[C@H](CCC(=O)O)NC(=O)CCCCNC(=O)c1ccc(Oc2ccc(C(=O)NCCCCC(=O)O)cc2)cc1 [Compound 200] ({X11-Ava}-ED[Dab]L[NMeI][β3hP]-NH2; N-terminus assumed),7.4 nM
18,CC(C)C[C@H](NC(=O)[C@H](CN)NC(=O)C[C@@H](NS(=O)(=O)c1ccc(-c2ccc(OCCO)cc2)cc1)C(=O)O)C(=O)N(C)[C@@H](CCC(=O)O)C(=O)N1CCC[C@H]1CC(N)=O [Compound 638] ({X7-d(βAsp)}-[Dap]L[NMeE][β3hP]-NH2; N-terminus assumed),0.14 nM
